# PubChem BioAssay AID463199 (Broad Institute, 2010)
# The source made the active and inactive calls.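 How the source made its calls: active means AC50, the dose giving half-maximal effect, exceeds a fixed cutoff for a compound that rescues yeast growth under heat; inactive means the rest, inconclusive results apart.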
# Test system: S. cerevisiae Burl-1 ts mutant growth, BacTiter-Glo, 38.5C 24 h
# Experiment: restored growth of temperature-sensitive Burl-1 yeast – whole organism, S. cerevisiae, Burl-1 ts mutant, luminescence, counter-screen for SUMOylation pathway inhibitor project, dose response (AID 463199)
row,SMILES,AC50
1,COC(=O)c1sc2ccccc2c1NC(=O)c1ccc(S(=O)(=O)N2CCCC(C)C2)cc1 (centres undefined),> 42 µM (inactive)
2,CCCCc1nnc(NC(=O)CSc2nc(O)c(-c3ccccc3)c(=O)[nH]2)s1,> 42 µM (inactive)
3,CCCCN(C)C(=O)c1cc2c(Cl)nc3ccccc3c2s1,> 42 µM (inactive)
4,Cc1nc2ccccc2c(=O)n1CC(=O)N1CCOCC1,> 42 µM (inactive)
5,COc1ccc2cc(C(=O)Nc3ccc(Cl)cc3)sc(=O)c2c1OC,> 42 µM (inactive)
6,COc1ccc(-c2[nH]nc3c2C(c2ccncc2)C(C#N)=C(N)O3)cc1 (centres undefined),> 42 µM (inactive)
7,O=C1c2cccc3c(N4CCCCC4)ccc(c23)C(=O)N1CCO,> 42 µM (inactive)
8,COc1cccc(NC(=O)CNC(=O)c2ccc(C)cc2)c1,> 42 µM (inactive)
9,CCOC(=O)C1CCN(Cc2ccc(OCc3ccccc3)cc2)CC1,> 42 µM (inactive)
10,CC(C(=O)N1CCN(C(=O)c2ccco2)CC1)n1sc2ccccc2c1=O (centres undefined),> 42 µM (inactive)
11,Cc1cc(C)cc(-n2ncc3c2CCCC3NC(=O)c2cc(C)[nH]n2)c1 (centres undefined),> 42 µM (inactive)
12,CC(=O)NC1CCCN(O)C(=O)/C=C(\C)CCOC(=O)C(NC(C)=O)CCCN(O)C(=O)/C=C(\C)CCOC(=O)C(NC(C)=O)CCCN(O)C(=O)/C=C(\C)CCOC1=O (centres undefined),> 42 µM (inactive)
13,O=C1CCC(C(=O)N2CCN(c3ccccc3)CC2)CN1CC1CCCCC1 (centres undefined),> 42 µM (inactive)
14,O=C(C1CCC(CNc2c(N3CCCCC3)c(=O)c2=O)CC1)N1CCN(C2CCCCC2)CC1 (centres undefined),> 42 µM (inactive)
15,COC(=O)C1C(c2ccc(OC)c(OC)c2)NC(c2ccc(OC)c(OC)c2)C(C(=O)OC)S1(=O)=O (centres undefined),> 42 µM (inactive)
16,Nc1nc(SCc2nc3scc(-c4cccs4)c3c(=O)[nH]2)n[nH]1,> 42 µM (inactive)
17,C/C(=N/OCO/N=C(\C)c1ccccc1)c1ccccc1,> 42 µM (inactive)
18,O=C(Nc1ccc(F)cc1)c1ccc(CSc2ccccc2)o1,> 42 µM (inactive)
19,CCOc1cc(/C=N/NC(=O)C(=O)N/N=C/c2ccc(O)c(OCC)c2)ccc1O,> 42 µM (inactive)
20,Cc1ccc(S(=O)(=O)N[C@@H](Cc2ccccc2)C(=O)CCl)cc1,> 42 µM (inactive)
21,O=c1c2c3c(sc2n2cnnc2n1-c1ccccc1)N(Cc1ccccc1)CCC3,> 42 µM (inactive)
22,Cc1ccc(N(C(=O)CCl)C(C(=O)NC2CCCCC2)c2cccnc2)cc1C (centres undefined),> 42 µM (inactive)
23,COc1ccccc1C1NC(=O)CS1 (centres undefined),> 42 µM (inactive)
24,Cc1cc(=O)c(C(=O)O)cn1Nc1ccc(Cl)cc1,> 42 µM (inactive)
25,S=c1[nH]nc(-c2ccccn2)n1/N=C/c1ccccc1,> 42 µM (inactive)

row,SMILES,AC50
1,CC(C)CCCN1CCN=C1Nc1ccccc1,> 42 µM (inactive)
2,CN(Cc1ccccc1)c1ccc(S(=O)(=O)N2CCC(C(=O)O)CC2)cc1[N+](=O)[O-],> 42 µM (inactive)
3,O=C(COC(=O)CNC(=O)c1ccc(Cl)cc1)Nc1ncc(C(F)(F)F)cc1Cl,> 42 µM (inactive)
4,Cc1c(C(=O)N2CCCC2)c(S(=O)(=O)Nc2cccc(Br)c2)c(C)n1C,> 42 µM (inactive)
5,Cc1nc2sc(C(c3ccco3)N3CCOCC3)c(O)n2n1 (centres undefined),> 42 µM (inactive)
6,O=C(NC1CCCCC1)c1ccc2c(=O)n(CC3CCCO3)c(=O)[nH]c2c1 (centres undefined),> 42 µM (inactive)
7,O=CNCCCc1nc2ccccc2n1CCc1ccccc1,> 42 µM (inactive)
8,O=C1NC2(CCCCO2)CO1 (centres undefined),> 42 µM (inactive)
9,Cn1c(NCc2ccco2)nc2c1c(=O)n(Cc1ccc(Cl)cc1)c(=O)n2C,> 42 µM (inactive)
10,Nc1ccc(S(=O)(=O)NNC(=O)C(=O)NNc2ccccc2)cc1,> 42 µM (inactive)
11,O=C(Nc1nccs1)C1CCN(S(=O)(=O)c2ccc(Cl)c(C(F)(F)F)c2)CC1,> 42 µM (inactive)
12,Cn1c(=O)c2c(nc(N/N=C/c3ccc(OC(=O)c4ccco4)cc3)n2Cc2ccccc2Cl)n(C)c1=O,> 42 µM (inactive)
13,COc1c2ccoc2nc2c(OC)c(OC[C@@H](O)C(C)(C)O)ccc12,> 42 µM (inactive)
14,C=CCn1c(-c2ccc(OC)cc2)nc2ccccc21,> 42 µM (inactive)
15,NN1C(=O)NC(c2ccccc2)(c2ccccc2)C1=O,> 42 µM (inactive)
16,CC1(C)C(C=C(Cl)Cl)C1C(=O)OCc1cccc(Oc2ccccc2)c1 (centres undefined),> 42 µM (inactive)
17,COc1cc(/C=N/NC2=NS(=O)(=O)c3ccccc32)cc(OC)c1OC,> 42 µM (inactive)
18,O=C(Nc1ccc2nc(-c3ccc4nc[nH]c4c3)[nH]c2c1)c1cccs1,> 42 µM (inactive)
19,O=C(CSc1ncccc1C(=O)O)NC1CCCCC1,> 42 µM (inactive)
20,O=C1N=C(N2CCOCC2)S/C1=C\c1cccnc1,> 42 µM (inactive)
21,Cc1nn(CC(N)=O)c(=O)c2ccccc12,> 42 µM (inactive)
22,O=C(O)c1ccc(CNC(=O)c2ccccc2NC(=O)c2ccc([N+](=O)[O-])cc2)cc1,> 42 µM (inactive)
23,CCC1CCCCN1C(=O)CSc1nnc(CNC(=O)c2ccco2)o1 (centres undefined),> 42 µM (inactive)
24,O=C(Nc1cnn(Cc2ccc(Cl)cc2)c1)c1ccc([N+](=O)[O-])cc1,> 42 µM (inactive)
